Key:
Format in all cases: in vivo
[1] = test system: ragweed (common ragweed, Ambrosia artemisiifolia); assay: Test A preemergence, ragweed; settings: Preemergence, 0 to 100 scale (0 no effect, 100 complete control)
Summary of the method: (§1)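 Compounds in non-phytotoxic solvent with surfactant. Soil: loam/sand. Preemergence via directed soil spray after seeding; postemergence on seedlings 2–10 cm, one- to two-leaf.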

kochia (Bassia scoparia) [2] = assay: Test A postemergence, kochia; settings: Postemergence, 0 to 100 scale (0 no effect, 100 complete control); for Plant response rating, Kochia: 125 g ai/ha; for Kochia plant response rating: 500 g ai/ha, visual injury vs untreated controls after approx. 10 days
Summary of the method: as §1

[3] = test system: ragweed (common ragweed, Ambrosia artemisiifolia); assay: Test A postemergence, ragweed; settings: Postemergence, 0 to 100 scale (0 no effect, 100 complete control); for Plant response rating, Ragweed: 125 g ai/ha; for Ragweed plant response rating: 500 g ai/ha, visual injury vs untreated controls after approx. 10 days
Summary of the method: as §1

corn (Zea mays) = assay: Test A postemergence, corn; settings: Postemergence, 0 to 100 scale (0 no effect, 100 complete control); for Plant response rating, Corn: 125 g ai/ha; for Corn plant response rating: 500 g ai/ha, visual injury vs untreated controls after approx. 10 days
Summary of the method: as §1

[4] = test system: Ryegrass, Italian (Italian ryegrass, Lolium multiflorum); assay: Test A postemergence, Ryegrass, Italian; settings: Postemergence, 0 to 100 scale (0 no effect, 100 complete control); for Plant response rating, Ryegrass, Italian: 125 g ai/ha; for Ryegrass, Italian plant response rating: 500 g ai/ha, visual injury vs untreated controls after approx. 10 days
Summary of the method: as §1

[5] = test system: Foxtail, Giant (giant foxtail, Setaria faberi); assay: Test A preemergence, Foxtail, Giant; settings: Preemergence, 0 to 100 scale (0 no effect, 100 complete control)
Summary of the method: as §1

[6] = test system: Foxtail, Giant (giant foxtail, Setaria faberi); assay: Test A postemergence, Foxtail, Giant; settings: Postemergence, 0 to 100 scale (0 no effect, 100 complete control); for Plant response rating, Foxtail, Giant: 125 g ai/ha; for Foxtail, Giant plant response rating: 500 g ai/ha, visual injury vs untreated controls after approx. 10 days
Summary of the method: as §1

[7] = test system: barnyardgrass (Echinochloa crus-galli); assay: Test A preemergence, barnyardgrass; settings: Preemergence, 0 to 100 scale (0 no effect, 100 complete control)
Summary of the method: as §1

[8] = test system: pigweed (Amaranthus retroflexus); assay: Test A postemergence, pigweed; settings: Postemergence, 0 to 100 scale (0 no effect, 100 complete control); for Plant response rating, Pigweed: 125 g ai/ha; for Pigweed plant response rating: 500 g ai/ha, visual injury vs untreated controls after approx. 10 days
Summary of the method: as §1

[9] = test system: pigweed (Amaranthus retroflexus); assay: Test A preemergence, pigweed; settings: 0 to 100 scale (0 no effect, 100 complete control)
Summary of the method: (§2)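 Pots: loam soil/sand blend. Pre: directed soil spray at planting. Post: plants 2–10 cm, 1–2 leaf stage. Formulation: non-phytotoxic solvent + surfactant.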

[10] = test system: galium (catchweed bedstraw, Galium aparine); assay: Test A postemergence, galium; settings: Postemergence, 0 to 100 scale (0 no effect, 100 complete control); for Plant response rating, Galium: 125 g ai/ha; for Galium plant response rating: 500 g ai/ha, visual injury vs untreated controls after approx. 10 days
Summary of the method: as §2

[11] = test system: barnyardgrass (Echinochloa crus-galli); assay: Test A postemergence, barnyardgrass; settings: Postemergence, 0 to 100 scale (0 no effect, 100 complete control); for Plant response rating, Barnyardgrass: 125 g ai/ha; for Barnyardgrass plant response rating: 500 g ai/ha, visual injury vs untreated controls after approx. 10 days
Summary of the method: as §2

[12] = test system: wheat (Triticum aestivum); assay: Test A postemergence, wheat; settings: Postemergence, 0 to 100 scale (0 no effect, 100 complete control); for Plant response rating, Wheat: 125 g ai/ha; for Wheat plant response rating: 500 g ai/ha, visual injury vs untreated controls after approx. 10 days
Summary of the method: as §2

[13] = test system: blackgrass (Alopecurus myosuroides); assay: Test A postemergence, blackgrass; settings: Postemergence, 0 to 100 scale (0 no effect, 100 complete control); for Plant response rating, Blackgrass: 125 g ai/ha; for Blackgrass plant response rating: 500 g ai/ha, visual injury vs untreated controls after approx. 10 days
Summary of the method: as §1

kochia (Bassia scoparia) [14] = assay: Test A preemergence, kochia; settings: Preemergence, 0 to 100 scale (0 no effect, 100 complete control)
Summary of the method: as §1

[15] = test system: Ryegrass, Italian (Italian ryegrass, Lolium multiflorum); assay: Test A preemergence, Ryegrass, Italian; settings: Preemergence, 0 to 100 scale (0 no effect, 100 complete control)
Summary of the method: as §1

[16] = 125 g ai/ha, visual injury, approx. 10 days

Compound | Plant response rating, Ragweed [1, 16] | Plant response rating, Ragweed ([1]; 500 g ai/ha) | Plant response rating, Kochia (kochia (Bassia scoparia) [2]) | Kochia plant response rating (kochia (Bassia scoparia) [2]) | Plant response rating, Ragweed [3] | Ragweed plant response rating [3] | Plant response rating, Corn (corn (Zea mays)) | Corn plant response rating (corn (Zea mays)) | Plant response rating, Ryegrass, Italian [4] | Ryegrass, Italian plant response rating [4] | Plant response rating, Foxtail, Giant [5, 16] | Plant response rating, Foxtail, Giant ([5]; 500 g ai/ha) | Plant response rating, Foxtail, Giant [6] | Foxtail, Giant plant response rating [6] | Plant response rating, Barnyardgrass [7, 16] | Plant response rating, Barnyardgrass ([7]; 500 g ai/ha) | Plant response rating, Pigweed [8] | Pigweed plant response rating [8] | Plant response rating, Pigweed [9, 16] | Plant response rating, Pigweed ([9]; 500 g ai/ha) | further results
Cc1cc(C)c(N(S(=O)(=O)C(F)(F)F)S(=O)(=O)C(F)(F)F)cc1C(=O)N1CCC(F)(F)CC1 [Compound 210] | 80 | 90 | 50 | 90 | 80 | 90 | 10 | 40 | 20 | 40 | 90 | 100 | 0 | 30 | 90 | 100 | 60 | 100 | 100 | 100 | Plant response rating, Galium [10]: 80; Galium plant response rating [10]: 90; Plant response rating, Barnyardgrass [11]: 20; Barnyardgrass plant response rating [11]: 90; Plant response rating, Wheat [12]: 0; Wheat plant response rating [12]: 60; Plant response rating, Blackgrass [13]: 0; Blackgrass plant response rating [13]: 0; Plant response rating, Kochia (kochia (Bassia scoparia) [14]; [16]): 30; Plant response rating, Kochia (kochia (Bassia scoparia) [14]; 500 g ai/ha): 90; Plant response rating, Ryegrass, Italian [15, 16]: 50; Plant response rating, Ryegrass, Italian ([15]; 500 g ai/ha): 100
Cc1cc(F)c(C(=O)N2CCCCC2)cc1NS(=O)(=O)C(F)(F)F [Compound 211] | 30 | 80 | 10 | 50 | 30 | 60 | 0 | 0 | 40 | 30 | 60 | 90 | 0 | 50 | 60 | 90 | 40 | 60 | 20 | 90 | Plant response rating, Galium [10]: 60; Galium plant response rating [10]: 70; Plant response rating, Barnyardgrass [11]: 0; Barnyardgrass plant response rating [11]: 30; Plant response rating, Wheat [12]: 0; Wheat plant response rating [12]: 0; Plant response rating, Blackgrass [13]: 0; Blackgrass plant response rating [13]: 0; Plant response rating, Kochia (kochia (Bassia scoparia) [14]; [16]): 80; Plant response rating, Kochia (kochia (Bassia scoparia) [14]; 500 g ai/ha): 90; Plant response rating, Ryegrass, Italian [15, 16]: 50; Plant response rating, Ryegrass, Italian ([15]; 500 g ai/ha): 70
Cc1cc(F)c(C(=O)N2CCCCC2)cc1N(S(=O)(=O)C(F)(F)F)S(=O)(=O)C(F)(F)F [Compound 212] | 0 | 30 | 20 | 70 | 20 | 20 | 0 | 10 | 0 | 50 | 20 | 90 | 0 | 20 | 0 | 90 | 20 | 60 | 90 | 90 | Plant response rating, Galium [10]: 50; Galium plant response rating [10]: 70; Plant response rating, Barnyardgrass [11]: 0; Barnyardgrass plant response rating [11]: 0; Plant response rating, Wheat [12]: 0; Wheat plant response rating [12]: 0; Plant response rating, Blackgrass [13]: 0; Blackgrass plant response rating [13]: 0; Plant response rating, Kochia (kochia (Bassia scoparia) [14]; [16]): 30; Plant response rating, Kochia (kochia (Bassia scoparia) [14]; 500 g ai/ha): 90; Plant response rating, Ryegrass, Italian [15, 16]: 30; Plant response rating, Ryegrass, Italian ([15]; 500 g ai/ha): 70
Cc1cc(F)c(C(=O)N(C)C)cc1NS(=O)(=O)C(F)(F)F [Compound 215] | 0 | 20 | 30 | 70 | 60 | 80 | 0 | 60 | 0 | 60 | 40 | 70 | 20 | 50 | 60 | 90 | 50 | 80 | 100 | 90 | Plant response rating, Galium [10]: 50; Galium plant response rating [10]: 70; Plant response rating, Barnyardgrass [11]: 0; Barnyardgrass plant response rating [11]: 40; Plant response rating, Wheat [12]: 30; Wheat plant response rating [12]: 70; Plant response rating, Blackgrass [13]: 0; Blackgrass plant response rating [13]: 0; Plant response rating, Kochia (kochia (Bassia scoparia) [14]; [16]): 80; Plant response rating, Kochia (kochia (Bassia scoparia) [14]; 500 g ai/ha): 90; Plant response rating, Ryegrass, Italian [15, 16]: 20; Plant response rating, Ryegrass, Italian ([15]; 500 g ai/ha): 70
Cc1cc(F)c(C(=O)N(C)C)cc1N(S(=O)(=O)C(F)(F)F)S(=O)(=O)C(F)(F)F [Compound 216] | 0 | 30 | 20 | 30 | 10 | 60 | 30 | 40 | 0 | 70 | 20 | 90 | 0 | 20 | 40 | 80 | 30 | 70 | 80 | 100 | Plant response rating, Galium [10]: 50; Galium plant response rating [10]: 70; Plant response rating, Barnyardgrass [11]: 0; Barnyardgrass plant response rating [11]: 50; Plant response rating, Wheat [12]: 0; Wheat plant response rating [12]: 70; Plant response rating, Blackgrass [13]: 0; Blackgrass plant response rating [13]: 30; Plant response rating, Kochia (kochia (Bassia scoparia) [14]; [16]): 100; Plant response rating, Kochia (kochia (Bassia scoparia) [14]; 500 g ai/ha): 90; Plant response rating, Ryegrass, Italian [15, 16]: 30; Plant response rating, Ryegrass, Italian ([15]; 500 g ai/ha): 90

Reference: patent publication US20230278972A1, “SUBSTITUTED HALOALKYL SULFONANILIDE HERBICIDES” (FMC Corporation, priority 2020, published 2023)
